In patent US8008023B2, “Natural ligand of G protein coupled receptor RCC356 and uses thereof” (Chemcom S.A., priority 2005, dated 2011):

Legend:
[1] = molecular target: T1, RCC356 (Homo sapiens, UniProt Q8TCB6); test: Concentration-response analysis of odorants on Hek293 cells overexpressing RCC356 polypeptide, CRE-luciferase reporter (Dual-Glo); type: cell-based; details: for EC50: 0.1 μM to 1 mM, CRE-luciferase, read-out: Ec50 of RCC356 activation
T1 construct: expressed in transfected cells; host or cells: Hek293 cells, transient transfection with lipofectamine 2000
T1 sequence (Q8TCB6 1-318): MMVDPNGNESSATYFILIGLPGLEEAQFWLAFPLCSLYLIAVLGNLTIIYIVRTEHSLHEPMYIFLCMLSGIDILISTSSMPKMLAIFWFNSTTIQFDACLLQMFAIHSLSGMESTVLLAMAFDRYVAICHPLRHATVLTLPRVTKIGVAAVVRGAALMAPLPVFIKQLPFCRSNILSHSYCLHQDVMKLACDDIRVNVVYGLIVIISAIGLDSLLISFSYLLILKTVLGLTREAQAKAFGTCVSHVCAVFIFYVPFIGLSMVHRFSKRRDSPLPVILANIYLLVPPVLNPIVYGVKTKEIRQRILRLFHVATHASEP
Protocol: (§1) To further validate hits found during screenings of 80 odorants on RCC356 overexpressing-Hek293 cells, concentration-response analyses have been performed. Hek293 cells were grown in MEM supplemented with decomplemented FBS at 37° C. under 5% CO2 and 90% humidity. Two days before screening, cells were plated onto 96-well plates (PDL coated plates, Becton-Dickinson). The day after, cells were transfected with a plasmid encoding RCC356 polypeptide along with 2 plasmides encoding firefly luciferase and renilla luciferase respectively. Firefly transcription was driven by a minimum promoter including the CREB-response element (CRE), whereas renilla luciferase was driven by CMV promoter, a strong constitutive promoter. Transfection was performed using lipofectamine 2000 reagent (Invitrogen). Transfected cells were let under standard culture conditions for a further 24 hours, and then process for functional assay.
(§2) First, tested odorants (isovaleric, valeric, propionic, hexanoic, heptanoic, caprilic and pelargonic acids) were dissolved as 1M solutions in DMSO. They were then plated onto 96-well plates at different concentrations ranging from 0.1 μM to 1 mM in HBSS (Cambrex). DMSO represented thereby less than 1% (v/v) of the odorant solutions. Positive controls such as forskolin were included in odorant plates. Forskolin activates production of cAMP that in turn, through binding to CREB transcription factor triggers production of firefly luciferase, the reporter gene of the system. Detected luciferase activity in each well could be thereby expressed as a percent of forskolin response, allowing standardization thereon.
(§3) Functional assay was performed using Dual-Glo luciferase assay Kit according to manufacturer instructions (Promega).

[2] = molecular target: T1, RCC356; test: Screening of 80 odorants on RCC356 overexpressed in Hek293 cells, CRE-luciferase reporter (Dual-Glo); type: cell-based; details: Hek293 overexpressing RCC356; for RCC356 activation in odorant screening (luciferase activity as percent of forskolin response): odorants plated as 200 μM solutions in HBSS, two independent screenings; for hit found in both independent screenings: two independent screenings of 80 odorants
Protocol: as §1, with “Hek293” for “To further validate hits found during screenings of 80 odorants on RCC356 overexpressing-Hek293 cells, concentration-response analyses have been performed. Hek293”
as §2, with “Odorants” for “First, tested odorants (isovaleric, valeric, propionic, hexanoic, heptanoic, caprilic and pelargonic acids)”, “as 200” for “at different concentrations ranging from 0.1”, “solutions” for “to 1 mM”
as §3

Row | SMILES | EC50 [1] | RCC356 activation in odorant screening (luciferase activity as percent of forskolin response) [2] | hit found in both independent screenings [2] | efficiency of ligand on RCC356 activation ([1]; percent of forskolin response (FIG. 3A))
1 | C=CCCCC(=O)O [5-hexenoic acid] | 485 µM | – | – | –
2 | CCCCCCCC(=O)O [caprilic acid, caprylic acid] | 329 µM | seemed to lead to RCC356 activation | – | –
3 | CCCCCC(=O)O [caproic acid] | 91 µM | seemed to lead to RCC356 activation | – | –
4 | O=C(O)C1CCCCC1 [hexahydrobenzoic acid] | 104 µM | – | – | –
5 | CC(C)CC(=O)O [isovaleric acid] | 25 µM | seemed to lead to RCC356 activation | found in both screening | most efficient ligand
6 | CCCCCCC(=O)O [oenanthylic acid] | 260 µM | seemed to lead to RCC356 activation | – | –
7 | CCCCCCCCC(=O)O [pelargonic acid] | 643 µM | seemed to lead to RCC356 activation | – | –
8 | CCC(=O)O [propionic acid] | – | seemed to lead to RCC356 activation | – | –
9 | CCCCC(=O)O [valeric acid] | 97 µM | seemed to lead to RCC356 activation | found in both screening | –
